{"source": "ChEMBL document CHEMBL4321827", "about": "“Development and Therapeutic Potential of Selenazo Compounds” (J Med Chem, 2020)", "key": {"Histone deacetylase 5": {"biological_target": "Histone deacetylase 5 (Homo sapiens, UniProt Q9UQL6)", "sequence (Q9UQL6 whole entry)": "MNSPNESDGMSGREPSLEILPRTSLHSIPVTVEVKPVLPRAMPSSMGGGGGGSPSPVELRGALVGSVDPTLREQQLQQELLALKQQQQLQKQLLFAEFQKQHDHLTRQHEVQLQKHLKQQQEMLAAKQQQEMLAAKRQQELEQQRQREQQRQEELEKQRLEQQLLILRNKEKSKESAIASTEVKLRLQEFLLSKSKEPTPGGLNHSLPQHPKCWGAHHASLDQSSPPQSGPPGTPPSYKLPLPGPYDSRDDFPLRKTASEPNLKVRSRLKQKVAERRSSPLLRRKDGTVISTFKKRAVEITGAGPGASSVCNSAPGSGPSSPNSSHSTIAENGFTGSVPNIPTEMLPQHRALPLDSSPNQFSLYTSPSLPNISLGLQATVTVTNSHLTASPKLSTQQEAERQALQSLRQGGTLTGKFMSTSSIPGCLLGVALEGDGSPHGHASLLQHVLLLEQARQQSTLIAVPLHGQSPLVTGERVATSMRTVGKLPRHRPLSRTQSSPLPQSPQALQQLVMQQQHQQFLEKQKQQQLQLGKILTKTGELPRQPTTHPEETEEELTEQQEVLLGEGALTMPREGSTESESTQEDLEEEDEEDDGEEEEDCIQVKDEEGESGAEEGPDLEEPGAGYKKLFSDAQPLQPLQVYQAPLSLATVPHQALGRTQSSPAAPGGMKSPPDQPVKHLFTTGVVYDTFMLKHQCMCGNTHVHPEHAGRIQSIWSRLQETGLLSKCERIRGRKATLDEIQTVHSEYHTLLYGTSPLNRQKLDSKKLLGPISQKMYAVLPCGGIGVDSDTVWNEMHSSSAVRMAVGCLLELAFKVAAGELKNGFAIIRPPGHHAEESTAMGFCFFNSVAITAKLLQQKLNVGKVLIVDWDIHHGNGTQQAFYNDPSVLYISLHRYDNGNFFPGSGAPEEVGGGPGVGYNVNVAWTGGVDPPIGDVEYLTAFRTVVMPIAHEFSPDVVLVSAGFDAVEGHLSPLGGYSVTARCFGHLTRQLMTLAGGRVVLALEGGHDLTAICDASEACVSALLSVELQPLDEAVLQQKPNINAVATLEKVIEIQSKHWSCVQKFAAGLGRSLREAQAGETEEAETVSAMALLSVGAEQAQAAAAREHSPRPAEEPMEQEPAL", "assay": "Inhibition of human recombinant HDAC5 using acetyl-Lys(trifluoroacetyl)-AMC substrate by fluorescence based assay"}, "[1]": {"biological_target": "T1, Protein deacetylase HDAC6 (Homo sapiens, UniProt Q9UBN7)", "T1 sequence (Q9UBN7 whole entry)": "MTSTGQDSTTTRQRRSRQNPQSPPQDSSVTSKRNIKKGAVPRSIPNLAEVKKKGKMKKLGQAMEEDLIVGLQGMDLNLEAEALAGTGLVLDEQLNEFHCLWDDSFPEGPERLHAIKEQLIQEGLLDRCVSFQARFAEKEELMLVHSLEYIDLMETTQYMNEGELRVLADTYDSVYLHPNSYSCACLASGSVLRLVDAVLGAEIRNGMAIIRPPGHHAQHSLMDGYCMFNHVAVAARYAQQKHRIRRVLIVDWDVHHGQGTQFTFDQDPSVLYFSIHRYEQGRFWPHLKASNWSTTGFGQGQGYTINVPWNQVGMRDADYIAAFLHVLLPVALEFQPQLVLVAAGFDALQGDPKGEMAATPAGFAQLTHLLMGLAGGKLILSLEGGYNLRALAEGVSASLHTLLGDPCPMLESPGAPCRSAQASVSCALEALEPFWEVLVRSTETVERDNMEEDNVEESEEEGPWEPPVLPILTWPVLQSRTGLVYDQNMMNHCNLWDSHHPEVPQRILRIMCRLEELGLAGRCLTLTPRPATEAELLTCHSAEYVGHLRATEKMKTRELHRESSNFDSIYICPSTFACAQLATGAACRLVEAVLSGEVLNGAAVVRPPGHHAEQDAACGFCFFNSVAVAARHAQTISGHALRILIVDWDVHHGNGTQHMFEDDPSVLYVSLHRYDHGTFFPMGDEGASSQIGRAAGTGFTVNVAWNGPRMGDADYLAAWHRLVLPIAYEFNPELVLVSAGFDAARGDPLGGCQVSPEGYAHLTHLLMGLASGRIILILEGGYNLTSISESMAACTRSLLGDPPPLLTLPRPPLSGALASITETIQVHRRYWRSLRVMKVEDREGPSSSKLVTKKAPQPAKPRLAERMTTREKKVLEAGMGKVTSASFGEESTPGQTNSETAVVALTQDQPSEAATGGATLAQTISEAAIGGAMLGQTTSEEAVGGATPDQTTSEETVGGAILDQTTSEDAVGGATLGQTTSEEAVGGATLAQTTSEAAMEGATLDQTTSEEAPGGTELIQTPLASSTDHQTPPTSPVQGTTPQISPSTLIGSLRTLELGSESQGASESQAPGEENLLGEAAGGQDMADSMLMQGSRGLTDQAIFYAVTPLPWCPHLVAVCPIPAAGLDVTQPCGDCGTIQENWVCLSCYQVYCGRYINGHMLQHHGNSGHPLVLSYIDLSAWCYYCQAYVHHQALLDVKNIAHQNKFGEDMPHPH", "assay": "Inhibition of human recombinant HDAC6 using RHKKAc-AMC substrate by fluorescence based assay"}, "Histone deacetylase 9": {"biological_target": "Histone deacetylase 9 (Homo sapiens, UniProt Q9UKV0)", "sequence (Q9UKV0 whole entry)": "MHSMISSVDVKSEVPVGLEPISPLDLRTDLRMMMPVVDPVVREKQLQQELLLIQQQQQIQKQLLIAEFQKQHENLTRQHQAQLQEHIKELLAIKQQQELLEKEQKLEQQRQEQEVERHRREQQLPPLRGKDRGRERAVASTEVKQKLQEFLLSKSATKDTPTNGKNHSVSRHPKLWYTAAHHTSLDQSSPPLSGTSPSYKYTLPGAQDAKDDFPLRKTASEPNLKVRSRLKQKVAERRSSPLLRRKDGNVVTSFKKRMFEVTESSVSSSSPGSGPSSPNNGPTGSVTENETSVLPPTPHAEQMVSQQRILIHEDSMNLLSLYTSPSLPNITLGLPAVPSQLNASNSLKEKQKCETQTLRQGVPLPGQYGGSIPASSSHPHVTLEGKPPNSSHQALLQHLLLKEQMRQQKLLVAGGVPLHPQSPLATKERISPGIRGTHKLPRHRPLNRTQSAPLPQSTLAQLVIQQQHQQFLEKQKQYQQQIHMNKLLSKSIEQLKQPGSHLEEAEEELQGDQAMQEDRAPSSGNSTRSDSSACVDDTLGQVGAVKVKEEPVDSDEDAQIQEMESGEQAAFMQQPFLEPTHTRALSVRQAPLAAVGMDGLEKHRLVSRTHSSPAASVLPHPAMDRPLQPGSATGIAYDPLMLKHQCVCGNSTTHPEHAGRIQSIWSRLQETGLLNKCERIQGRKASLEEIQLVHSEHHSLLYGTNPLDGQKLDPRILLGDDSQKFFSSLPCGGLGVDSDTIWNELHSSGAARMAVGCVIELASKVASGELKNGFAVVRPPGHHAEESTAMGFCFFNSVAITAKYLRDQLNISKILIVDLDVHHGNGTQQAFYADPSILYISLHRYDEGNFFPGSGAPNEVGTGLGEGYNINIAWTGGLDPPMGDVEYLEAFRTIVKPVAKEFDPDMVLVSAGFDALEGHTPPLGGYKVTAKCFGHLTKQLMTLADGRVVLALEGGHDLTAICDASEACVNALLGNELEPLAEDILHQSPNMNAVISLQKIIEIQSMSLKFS", "assay": "Inhibition of human recombinant HDAC9 using acetyl-Lys(trifluoroacetyl)-AMC substrate by fluorescence based assay"}, "Rattus norvegicus": {"species_on_record": "Rattus norvegicus", "assay": "Effect on SOD activity in brain of rat with ischemia/reperfusion injury assessed as enzyme activity per mg protein", "assay_type": "functional"}, "[2]": {"assay": "Inhibition of inositol monophosphatase (unknown origin)", "parameters": "species or system Homo sapiens"}, "[3]": {"assay": "Inhibition of Bacillus anthracis TrxR"}, "[4]": {"assay": "Inhibition of Candida albicans H+-ATPase"}, "[5]": {"assay": "Inhibition of Aspergillus fumigatus TrxR"}, "Cryptosporidium parvum": {"test_system": "Cryptosporidium parvum", "assay": "Substrate activity at Cryptosporidium parvum glucose 6-phosphate isomerase"}}, "data": [{"smiles": "O=c1c2ccccc2[se]n1-c1ccccc1", "note": "[EBSELEN]", "values": [{"measurement": "IC50", "setting": "Histone deacetylase 5", "value": 3.4, "unit": "µM"}, {"measurement": "IC50", "setting": "[1]", "value": 6.9, "unit": "µM"}, {"measurement": "IC50", "setting": "Histone deacetylase 9", "value": 3.7, "unit": "µM"}, {"measurement": "Activity", "setting": "Rattus norvegicus", "value": 0.105, "unit": "U"}, {"measurement": "IC50", "setting": "[2]", "value": 1500, "unit": "nM"}, {"measurement": "IC50", "setting": "[3]", "value": 1000, "unit": "nM"}, {"measurement": "IC50", "setting": "[4]", "value": 3.9, "unit": "µM"}, {"measurement": "Ki", "setting": "[5]", "value": 220, "unit": "nM"}, {"measurement": "Km", "setting": "Cryptosporidium parvum", "value": 309, "unit": "µM"}]}]}
